Test [1] has as its target T1, human TLR7 (Homo sapiens, UniProt Q9NYK1).
T1 construct: host or cells: HEK-Blue cells
T1 sequence (Q9NYK1 27-1049): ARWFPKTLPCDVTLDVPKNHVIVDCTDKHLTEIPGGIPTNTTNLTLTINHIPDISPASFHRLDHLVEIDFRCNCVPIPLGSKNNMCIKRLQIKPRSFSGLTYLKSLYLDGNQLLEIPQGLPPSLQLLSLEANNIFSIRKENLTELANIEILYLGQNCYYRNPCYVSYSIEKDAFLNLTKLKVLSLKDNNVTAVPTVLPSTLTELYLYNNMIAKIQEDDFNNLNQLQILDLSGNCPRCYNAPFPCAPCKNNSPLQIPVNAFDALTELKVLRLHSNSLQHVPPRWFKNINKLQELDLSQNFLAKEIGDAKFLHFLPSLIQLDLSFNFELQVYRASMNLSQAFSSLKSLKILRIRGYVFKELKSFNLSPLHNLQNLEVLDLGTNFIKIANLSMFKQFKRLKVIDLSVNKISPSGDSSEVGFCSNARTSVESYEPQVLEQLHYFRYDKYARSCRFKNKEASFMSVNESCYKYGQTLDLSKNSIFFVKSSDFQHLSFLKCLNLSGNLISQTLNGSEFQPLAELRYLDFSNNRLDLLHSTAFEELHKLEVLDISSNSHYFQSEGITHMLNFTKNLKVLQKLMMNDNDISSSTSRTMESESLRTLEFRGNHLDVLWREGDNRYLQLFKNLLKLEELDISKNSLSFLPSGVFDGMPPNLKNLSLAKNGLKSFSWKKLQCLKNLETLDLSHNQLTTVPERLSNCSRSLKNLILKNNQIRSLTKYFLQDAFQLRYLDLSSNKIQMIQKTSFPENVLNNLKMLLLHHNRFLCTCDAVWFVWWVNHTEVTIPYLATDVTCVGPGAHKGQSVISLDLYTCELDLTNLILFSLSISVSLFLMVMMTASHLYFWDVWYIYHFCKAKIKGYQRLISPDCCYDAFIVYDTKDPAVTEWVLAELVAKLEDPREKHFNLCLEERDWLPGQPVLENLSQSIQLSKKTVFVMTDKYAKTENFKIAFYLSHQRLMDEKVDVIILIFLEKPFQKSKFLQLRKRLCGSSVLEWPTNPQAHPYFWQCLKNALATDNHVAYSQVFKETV
Description: TLR7 inhibition reporter assay (HEK-Blue cells, SEAP reporter, gardiquimod stimulation). In kind it is cell-based. As to conditions: HEK-Blue cells overexpressing human TLR7, gardiquimod 7.5 μM. A digest of the protocol:
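HEK-Blue reporter cells (15,000/well TLR7, 20,000 TLR8) exposed to compound over 0.05 nM–50 μM, agonist-stimulated (R848 for TLR8, gardiquimod for TLR7), 22 h at 37 °C, 5% CO2. SEAP read with HEK-Blue Detection; % inhibition relative to agonist-plus-DMSO and known-inhibitor controls.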

Test [2] concerns the target T2, human TLR9 (Homo sapiens, UniProt Q9NR96).
T2 construct: host or cells: HEK-Blue cells
T2 sequence (Q9NR96 26-1032): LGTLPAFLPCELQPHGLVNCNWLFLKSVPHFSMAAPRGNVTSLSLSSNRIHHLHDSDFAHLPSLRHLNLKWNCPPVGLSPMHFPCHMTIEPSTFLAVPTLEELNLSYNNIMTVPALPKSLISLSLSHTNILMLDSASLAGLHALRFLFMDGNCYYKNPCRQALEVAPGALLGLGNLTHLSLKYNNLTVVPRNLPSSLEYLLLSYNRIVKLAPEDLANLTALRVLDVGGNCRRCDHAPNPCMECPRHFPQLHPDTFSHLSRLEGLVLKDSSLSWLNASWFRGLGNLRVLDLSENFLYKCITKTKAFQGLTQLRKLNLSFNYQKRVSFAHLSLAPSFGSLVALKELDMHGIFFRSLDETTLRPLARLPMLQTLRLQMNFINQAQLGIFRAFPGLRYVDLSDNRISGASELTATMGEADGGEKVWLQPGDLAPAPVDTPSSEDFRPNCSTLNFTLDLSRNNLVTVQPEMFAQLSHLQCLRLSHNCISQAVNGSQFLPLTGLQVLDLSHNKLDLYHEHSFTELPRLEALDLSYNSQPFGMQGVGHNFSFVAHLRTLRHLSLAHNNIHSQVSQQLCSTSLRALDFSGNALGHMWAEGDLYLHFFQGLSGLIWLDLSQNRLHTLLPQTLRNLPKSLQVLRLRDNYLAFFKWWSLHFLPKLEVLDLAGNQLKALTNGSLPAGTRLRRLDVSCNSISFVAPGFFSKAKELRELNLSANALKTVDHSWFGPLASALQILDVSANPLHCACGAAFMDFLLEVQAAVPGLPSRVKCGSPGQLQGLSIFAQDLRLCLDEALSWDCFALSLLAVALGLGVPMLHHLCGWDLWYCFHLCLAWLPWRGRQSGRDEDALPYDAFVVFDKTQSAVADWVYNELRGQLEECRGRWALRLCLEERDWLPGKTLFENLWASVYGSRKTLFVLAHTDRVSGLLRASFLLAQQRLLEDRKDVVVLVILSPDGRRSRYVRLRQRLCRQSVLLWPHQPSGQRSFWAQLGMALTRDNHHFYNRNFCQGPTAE
Description: TLR9 inhibition reporter assay (HEK-Blue cells, SEAP reporter, ODN2006 stimulation). In kind it is cell-based. The note with it: HEK-Blue cells overexpressing human TLR9, ODN2006 5 nM. The method, boiled down: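 Agonists used: gardiquimod 7.5 μM (TLR7), R848 15.9 μM (TLR8), ODN2006 5 nM (TLR9), added after 30 min room-temperature compound pre-treatment (0.05 nM–50 μM) of receptor-overexpressing HEK-Blue cells. SEAP reporter (NF-κB/AP-1 driven) read after 22 h at 37 °C; inhibition scaled between agonist+DMSO and reference-inhibitor wells.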

`COc1ccc(-c2[nH]c3ccc(C4CCN(C(=O)CN[C@@H](CO)CC(C)C)CC4)cc3c2C(C)C)cc1OC` [Example 234, (R)-1-(4-(2-(3,4-dimethoxyphenyl)-3-isopropyl-1H-indol-5-yl)piperidin-1-yl)-2-((1-hydroxy-4-methylpentan-2-yl)amino) ethan-1-one]: the IC50 (as a rule, the concentration that gives 50% inhibition) in test [1] was found to be 172 nM; in test [2], 1880 nM.

On to `COc1ccc(-c2[nH]c3ccc(C4CCN(C(=O)CNC[C@H](O)CO)CC4)cc3c2C(C)C)cc1OC` [Example 235, (S)-2-((2,3-dihydroxypropyl)amino)-1-(4-(2-(3,4-dimethoxyphenyl)-3-isopropyl-1H-indol-5-yl)piperidin-1-yl)ethan-1-one], for which the concentration for half-maximal inhibition (IC50) in test [1] was 15 nM; in test [2], 774 nM.

Take `COc1ccc(-c2[nH]c3ccc(C4CCN(C(=O)CNC5CCCC5O)CC4)cc3c2C(C)C)cc1OC` (stereo not shown) [Example 236, 1-(4-(2-(3,4-dimethoxyphenyl)-3-isopropyl-1H-indol-5-yl)piperidin-1-yl)-2-((2-hydroxycyclopentyl)amino)ethan-1-one]: the IC50 in test [1] was 29 nM; in test [2], 1380 nM.

With `COc1ccc(-c2[nH]c3ccc(C4CCN(C(=O)CNCCC(C)O)CC4)cc3c2C(C)C)cc1OC` (stereo not shown) [Example 237, 1-(4-(2-(3,4-dimethoxyphenyl)-3-isopropyl-1H-indol-5-yl)piperidin-1-yl)-2-((3-hydroxybutyl)amino)ethan-1-one], the results for the IC50 in test [1] and in test [2] were 15 nM and 1160 nM, respectively.

`COc1ccc(-c2[nH]c3ccc(C4CCN(C(=O)CN5CCC(O)CC5)CC4)cc3c2C(C)C)cc1OC` [Example 238, 1-(4-(2-(3,4-dimethoxyphenyl)-3-isopropyl-1H-indol-5-yl)piperidin-1-yl)-2-(4-hydroxypiperidin-1-yl) ethan-1-one]: the half-inhibitory concentration (IC50) was 36 nM in test [1] and 1420 nM in test [2].

Regarding `COc1ccc(-c2[nH]c3ccc(C4CCN(C(=O)CN5CCCN(C)CC5)CC4)cc3c2C(C)C)cc1OC` [Example 239, 1-(4-(2-(3,4-dimethoxyphenyl)-3-isopropyl-1H-indol-5-yl)piperidin-1-yl)-2-(4-methyl-1,4-diazepan-1-yl)ethan-1-one], the figures for the IC50 in test [1] and in test [2] were 11 nM and 516 nM, respectively.

Turning to `COc1ccc(-c2[nH]c3ccc(C4CCN(C(=O)CN5CCN(C(C)C)CC5)CC4)cc3c2C(C)C)cc1OC` [Example 240, 1-(4-(2-(3,4-dimethoxyphenyl)-3-isopropyl-1H-indol-5-yl)piperidin-1-yl)-2-(4-isopropylpiperazin-1-yl)ethan-1-one], the values for the IC50 in test [1] and in test [2] were 11 nM and 1390 nM, respectively.

Take `COc1ccc(-c2[nH]c3ccc(C4CCN(C(=O)CN5CCC(N6CCN(C)CC6)CC5)CC4)cc3c2C(C)C)cc1OC` [Example 241, 1-(4-(2-(3,4-dimethoxyphenyl)-3-isopropyl-1H-indol-5-yl)piperidin-1-yl)-2-(4-(4-methylpiperazin-1-yl)piperidin-1-yl)ethan-1-one]: the IC50 is 12 nM in test [1] and 571 nM in test [2].

Consider `COc1ccc(-c2[nH]c3ccc(C4CCN(C(=O)CN(C)CCO)CC4)cc3c2C(C)C)cc1OC` [Example 242, 1-(4-(2-(3,4-dimethoxyphenyl)-3-isopropyl-1H-indol-5-yl)piperidin-1-yl)-2-((2-hydroxyethyl)(methyl)amino)ethan-1-one], for which the half-maximal inhibitory concentration (IC50) in test [1] came to 23 nM; in test [2], 976 nM.

Regarding `COc1ccc(-c2[nH]c3ccc(C4CCN(C(=O)CN5CCC(CO)CC5)CC4)cc3c2C(C)C)cc1OC` [Example 243, 1-(4-(2-(3,4-dimethoxyphenyl)-3-isopropyl-1H-indol-5-yl)piperidin-1-yl)-2-(4-(hydroxymethyl)piperidin-1-yl)ethan-1-one], the IC50 worked out at 55 nM in test [1] and 1510 nM in test [2].

In the case of `COc1ccc(-c2[nH]c3ccc(C4CCN(C(=O)CN5CCC(N(C)C)CC5)CC4)cc3c2C(C)C)cc1OC` [Example 244, 1-(4-(2-(3,4-dimethoxyphenyl)-3-isopropyl-1H-indol-5-yl)piperidin-1-yl)-2-(4-(dimethylamino)piperidin-1-yl)ethan-1-one], the results for the IC50 in test [1] and in test [2] were 6 nM and 381 nM, respectively.

On to `COc1ccc(-c2[nH]c3ccc(C4CCN(C(=O)CNC5CCC(C(C)(C)O)CC5)CC4)cc3c2C(C)C)cc1OC` (stereo not shown) [Example 245, 1-(4-(2-(3,4-dimethoxyphenyl)-3-isopropyl-1H-indol-5-yl)piperidin-1-yl)-2-((4-(2-hydroxypropan-2-yl)cyclohexyl)amino)ethan-1-one], for which the IC50 in test [1] came to 26 nM; in test [2], 1140 nM.

For the compound `COc1ccc(-c2[nH]c3ccc(C4CCN(C(=O)CNC5CCC(O)CC5)CC4)cc3c2C(C)C)cc1OC` (stereo not shown) [Example 246, 1-(4-(2-(3,4-dimethoxyphenyl)-3-isopropyl-1H-indol-5-yl)piperidin-1-yl)-2-((4-hydroxycyclohexyl)amino)ethan-1-one], the IC50 in test [1] came to 11 nM; in test [2], 664 nM.

For the compound `CCN(CC)C(=O)C1CCCN(CC(=O)N2CCC(c3ccc4[nH]c(-c5ccc(OC)c(OC)c5)c(C(C)C)c4c3)CC2)C1` (stereo not shown) [Example 247, 1-(2-(4-(2-(3,4-dimethoxyphenyl)-3-isopropyl-1H-indol-5-yl)piperidin-1-yl)-2-oxoethyl)-N,N-diethylpiperidine-3-carboxamide], the IC50 in test [1] was determined as 40 nM; in test [2], 4130 nM.

Consider `CCN(CC)C(=O)C1CCCN(CC(=O)N2CCC(c3ccc4[nH]c(-c5ccc(OC)c(OC)c5)c(C(C)C)c4c3)CC2)C1` (stereo not shown) [Example 248, 1-(2-(4-(2-(3,4-dimethoxyphenyl)-3-isopropyl-1H-indol-5-yl)piperidin-1-yl)-2-oxoethyl)-N,N-diethylpiperidine-3-carboxamide], for which the IC50 in test [1] worked out at 33 nM; in test [2] it was 163 nM.

Take `COc1ccc(-c2[nH]c3ccc(C4CCN(C(=O)CN5CCCC(CO)C5)CC4)cc3c2C(C)C)cc1OC` (stereo not shown) [Example 249, 1-(4-(2-(3,4-dimethoxyphenyl)-3-isopropyl-1H-indol-5-yl)piperidin-1-yl)-2-(3-(hydroxymethyl)piperidin-1-yl)ethan-1-one]: the IC50 in test [1] was 21 nM; in test [2] it was 780 nM.

As for `COc1ccc(-c2[nH]c3ccc(C4CCN(C(=O)CNC[C@@H](F)C(C)(C)O)CC4)cc3c2C(C)C)cc1OC` [Example 251, (R)-1-(4-(2-(3,4-dimethoxyphenyl)-3-isopropyl-1H-indol-5-yl)piperidin-1-yl)-2-((2-fluoro-3-hydroxy-3-methylbutyl)amino) ethan-1-one], the IC50 was found to be 372 nM in test [1] and 15300 nM in test [2].

The values are drawn from patent US11180474B2 (BRISTOL-MYERS SQUIBB COMPANY, priority 2016, dated 2021).
